In one data set the target is T1, human 5-HT2B receptors (Homo sapiens, UniProt P41595).
T1 construct: expressed in transfected cells; host or cells: CHO cell line
In words: Binding to 5-HT2B receptor, [3H]-5-HT radioligand, Method (b). Particulars: human 5-HT2B receptors in a CHO cell line, read-out: Method (b) Ki (2B). The procedure:
(§1) The binding of compounds of formula (I) to serotonin receptors was determined in vitro by standard methods. The preparations were investigated in accordance with the assays given hereinafter.
Method (b): For the binding to the 5-HT2B receptor the 5-HT2B receptors were radiolabeled with [^3H]-5-HT. The affinity of the compounds for human 5-HT2B receptors in a CHO cell line was determined according to the procedure of K. Schmuck, C. Ullmer, P. Engels and H. Lubbert, FEBS Lett., 1994, 342, 85-90.

Data set [1] addresses T2, 5-HT2C receptor (Homo sapiens, UniProt P28335).
T2 sequence (P28335 33-458): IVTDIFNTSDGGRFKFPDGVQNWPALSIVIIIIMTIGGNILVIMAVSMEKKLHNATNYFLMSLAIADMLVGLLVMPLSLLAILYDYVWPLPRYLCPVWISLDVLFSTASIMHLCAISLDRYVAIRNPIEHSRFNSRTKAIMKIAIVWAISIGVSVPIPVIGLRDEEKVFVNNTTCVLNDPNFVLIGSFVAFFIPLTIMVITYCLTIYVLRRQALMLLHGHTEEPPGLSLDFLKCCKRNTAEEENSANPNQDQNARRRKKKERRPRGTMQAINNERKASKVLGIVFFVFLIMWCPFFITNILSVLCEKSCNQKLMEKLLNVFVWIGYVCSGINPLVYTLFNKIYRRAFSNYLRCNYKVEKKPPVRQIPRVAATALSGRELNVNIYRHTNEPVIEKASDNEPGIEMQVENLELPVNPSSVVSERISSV
Briefly: Functional activity, FLIPR calcium assay in CHO cells expressing human 5-HT2C. The arrangement: expressed in transfected cells; host or cells: CHO cells. Particulars: for EC50: CHO cells, FLIPR, Fluo-3-AM, read-out: h5-HT2C EC50; for h5-HT2C Rel. Eff.: maximum fluorescent signal relative to 10 μM 5-HT (defined as 100%). In kind it is cell-based. As for the experimental part:
(§2) The functional activity of compounds of formula (I) was assayed using a Fluorimetric Imaging Plate Reader (FLIPR). CHO cells expressing the human 5-HT2C or human 5-HT2A receptors were counted and plated into standard 96 well microtitre plates on the day before testing to give a confluent monolayer. The cells were then loaded with the calcium sensitive dye, Fluo-3-AM. Unincorporated dye was removed using an automated cell washer to leave a total volume of 100 μL/well of assay buffer (Hanks balanced salt solution containing 20 mM Hepes and 2.5 mM probenecid). The drug (dissolved in 50 μL of the assay buffer) was added at a rate of 70 μL/sec to each well of the FLIPR 96 well plate during fluorescence measurements. The measurements were taken at 1 sec intervals and the maximum fluorescent signal was measured (approx 10-15 secs after drug addition) and compared with the response produced by 10 μM 5-HT (defined as 100%) to which it was expressed as a percentage response (relative efficacy). Dose response curves were constructed using Graphpad Prism (Graph Software Inc.).

The target in data set [2] is T3, 5-HT2A receptor (Homo sapiens, UniProt P28223). Briefly: Functional activity, FLIPR calcium assay in CHO cells expressing human 5-HT2A. In kind it is cell-based. More on the design: expressed in transfected cells; host or cells: CHO cells. The conditions noted are these: for EC50: CHO cells, FLIPR, Fluo-3-AM, read-out: h5-HT2A EC50; for h5-HT2A Rel. Eff.: maximum fluorescent signal relative to 10 μM 5-HT (defined as 100%). As for the experimental part: as §2

Data set [3] deals with T2, 5-HT2C receptor. In words: Binding to 5-HT2C receptor, [3H]-5-HT radioligand, Method (a). The arrangement: expressed in transfected cells; host or cells: CHO cell line. The conditions noted are these: 5-HT2C receptors in a CHO cell line, read-out: Method (a) Ki (2C). The procedure:
as §1
Method (a): For the binding to the 5-HT2C receptor the 5-HT2C receptors were radiolabeled with [^3H]-5-HT. The affinity of the compounds for 5-HT2C receptors in a CHO cell line was determined according to the procedure of D. Hoyer, G. Engel and H. O. Kalkman, European J. Pharmacol., 1985, 118, 13-23.

Data set [4] concerns the target T3, 5-HT2A receptor. Briefly: Binding to 5-HT2A receptor, [125I]-DOI radioligand, Method (c). The arrangement: expressed in transfected cells; host or cells: CHO cell line. The conditions noted are these: 5-HT2A receptors in a CHO cell line, read-out: Method (c) Ki (2A). The procedure: as §1
Method (c): For the binding to the 5-HT2A receptor the 5-HT2A receptors were radiolabeled with [^125I]-DOI. The affinity of the compounds for 5-HT2A receptors in a CHO cell line was determined according to the procedure of D. J. McKenna and S. J. Peroutka, J. Neurosci., 1989, 9, 3482-90.

T1 sequence (P41595 whole entry): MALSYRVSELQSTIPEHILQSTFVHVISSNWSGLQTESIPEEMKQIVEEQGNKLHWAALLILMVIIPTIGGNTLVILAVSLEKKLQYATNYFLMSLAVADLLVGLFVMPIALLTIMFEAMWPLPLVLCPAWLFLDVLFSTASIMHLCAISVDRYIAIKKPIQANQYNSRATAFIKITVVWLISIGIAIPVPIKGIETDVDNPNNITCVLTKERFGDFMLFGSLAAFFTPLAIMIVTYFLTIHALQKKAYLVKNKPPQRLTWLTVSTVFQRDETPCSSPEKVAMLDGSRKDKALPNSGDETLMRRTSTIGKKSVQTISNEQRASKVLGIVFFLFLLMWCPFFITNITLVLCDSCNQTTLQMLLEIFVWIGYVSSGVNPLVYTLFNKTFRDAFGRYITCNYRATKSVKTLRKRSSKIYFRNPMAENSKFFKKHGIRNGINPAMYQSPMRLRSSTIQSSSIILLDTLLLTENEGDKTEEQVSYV
T3 sequence (P28223 whole entry): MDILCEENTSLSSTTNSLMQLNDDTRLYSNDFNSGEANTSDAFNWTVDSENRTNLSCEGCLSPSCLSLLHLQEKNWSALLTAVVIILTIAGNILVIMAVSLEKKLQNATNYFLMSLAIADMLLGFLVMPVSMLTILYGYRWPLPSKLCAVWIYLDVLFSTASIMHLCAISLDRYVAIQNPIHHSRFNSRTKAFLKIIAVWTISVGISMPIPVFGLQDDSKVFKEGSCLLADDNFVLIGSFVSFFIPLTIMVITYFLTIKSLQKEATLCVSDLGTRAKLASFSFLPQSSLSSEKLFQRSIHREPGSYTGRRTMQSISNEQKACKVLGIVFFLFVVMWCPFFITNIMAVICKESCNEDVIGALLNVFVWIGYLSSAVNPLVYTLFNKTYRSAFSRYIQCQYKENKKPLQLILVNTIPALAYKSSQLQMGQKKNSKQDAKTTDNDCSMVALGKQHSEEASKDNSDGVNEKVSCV

What is called melting point is the temperature, or range, at which the solid turns liquid. Turning to `Cc1c2c(nc3c1C[C@@H]1CNC[C@@H](C)N31)COC2`, the melting point was 118 to 119 °C.
`C[C@@H]1OCc2cc3c(nc21)N1[C@@H](CNC[C@H]1C)C3` yielded a melting point of 90 to 91 °C.
Broadly, the Ki is the equilibrium dissociation constant of an inhibitor or competing ligand from its target. By EC50 is commonly meant the concentration that produces a half-maximal response. As for `C[C@@H]1CNC[C@H]2Cc3cc4c(nc3N21)[C@H](C1CC1)OC4` [Example 17, (3S,5R,8aR)-3-Cyclopropyl-5-methyl-1,3,5,6,7,8,8a,9-octahydro-2-oxa-4,4b,7-triaza-cyclopehta[b]fluorene], the results for the Ki at human 5-HT2B receptors, on 5-HT2C receptor [3] and at 5-HT2A receptor [4] were 760 nM, 23.4 nM and 635 nM, respectively. Moreover, the results for the EC50 on 5-HT2C receptor [1] and on 5-HT2A receptor [2] were 12.4 nM and 534 nM, respectively. For the same molecule, the “h5-HT2C Rel. Eff.” value at 5-HT2C receptor [1] worked out at 95%. Moreover, the “h5-HT2A Rel. Eff.” value on 5-HT2A receptor [2] amounted to 35%.
As to `C[C@@H]1CNC[C@H]2Cc3cc4c(nc3N21)C(C)(C)OC4` [Example 19, (5R,8aR)-3,3,5-Trimethyl-1,3,5,6,7,8,8a,9-octahydro-2-oxa-4,4b,7-triaza-cyclopenta[b]fluorene], the Ki at human 5-HT2B receptors worked out at 26.3 nM; at 5-HT2C receptor [3], 5.5 nM; on 5-HT2A receptor [4], 80.2 nM. Also, the EC50 is 8.4 nM on 5-HT2C receptor [1] and over 1000 nM on 5-HT2A receptor [2]. The “h5-HT2C Rel. Eff.” value at 5-HT2C receptor [1] is reported as 87%. Also, at 5-HT2A receptor [2], the “h5-HT2A Rel. Eff.” value is 3%.
Take `C[C@@H]1CNC[C@H]2Cc3cc4c(nc3N21)CSC4` [Example 33, (5R,8aR)-5-Methyl-1,3,5,6,7,8,8a,9-octahydro-2-thia-4,4b,7-triaza-cyclopenta[b]fluorene]: the Ki at human 5-HT2B receptors was found to be 21.1 nM; on 5-HT2C receptor [3] it was 5.3 nM; on 5-HT2A receptor [4], 98.9 nM.

Source of the values: US7547699B2, “Tetracyclic 6 azapyrazinoindolines as 5HT2C receptor agonists for obesity” (Hoffmann-La Roche Inc., priority 2005, dated 2009).
